In patent publication US9834526B2 (MERCK SHARP & DOHME CORP., priority 2013, dated 2017):

biological target: T1, wildtype HIV-1 protease (Human immunodeficiency virus type 1 group M subtype B, UniProt P04585); test: Inhibition of microbial expressed HIV protease (Pepcleav); assay type: biochemical; conditions: wild type HIV-1 protease expressed in E. coli, 20 pM enzyme, 400 micromolar peptide substrate, pH 5.5, LC-MS readout; mean of at least two independent experiments
T1 construct: preincubated with the HIV-1 protease (wild type) enzyme in assay buffer; made in house; host or cells: Escherichia coli
Description: Assay for Inhibition of Microbial Expressed HIV Protease (“Pepcleav”)
Studies of the inhibition of the wildtype HIV-1 protease (which was expressed in Escherichia coli) were carried out with a peptide substrate [Val-Ser-Gln-Asn-(βnaphthyl)Ala-Pro-Ile-Val (SEQ ID NO:1)]. The inhibitor was first preincubated with the HIV-1 protease (wild type) enzyme in assay buffer (50 mM sodium acetate, pH 5.5, 100 mM NaCl, and 0.1% BSA) for 30 minutes at room temperature. Substrate was added to 400 micromolar in a total volume of 20 microliters containing 20 picomolar HIV-1 protease (final) and the reaction was incubated for 1 hour at 30° C. The reaction was quenched with the addition of formic acid and indinavir to 0.012% and 150 nM final concentrations, respectively. The product formation was determined after separation of product and substrate on a Zorbax Eclipse XDB-C18 column connected to an API 4000 mass spectrometer (Applied Biosystems) with multiple reaction monitoring (transitions were 644.5/428.9 and 615.4/422.2 (M1/M3) for product and indinavir respectively). The extent of inhibition of the reaction was determined from the peak area of the products. Analysis of the products, independently synthesized, provided quantitation standards and confirmation of the product composition.

Point of comparison: `COC(=O)N[C@H](C(=O)Nc1ccccc1CC[C@@H]1CN[C@H](C)[C@@H](CSc2ncccc2C(F)(F)F)O1)C(c1ccccc1)c1ccccc1` [Example 20, methyl N-[(1S)-1-benzhydryl-2-[[2-[2-[(2R,5R,6S)-5-methyl-6-[[3-(trifluoromethyl)-2-pyridyl]sulfanylmethyl]morpholin-2-yl]ethyl]phenyl]amino]-2-oxo-ethyl]carbamate], IC50 43.3 nM. Against it:
- COC(=O)N[C@H](C(=O)Nc1ccccc1CC[C@@H]1CN[C@H](C)[C@@H](CSc2ccc(Cl)cn2)O1)C(c1ccccc1)c1ccccc1 [Example 8, methyl N-[(1S)-1-benzhydryl-2-[[2-[2-[(2R,5R,6S)-6-[(5-chloro-2-pyridyl)sulfanylmethyl]-5-methyl-morpholin-2-yl]ethyl]phenyl]amino]-2-oxo-ethyl]carbamate] — 5.2-fold lower, 8.35 nM
- COC(=O)N[C@H](C(=O)Nc1ccccc1CC[C@@H]1CN[C@H](C)[C@@H](CSc2ncnc3c2cnn3C)O1)C(c1ccccc1)c1ccccc1 [Example 11, methyl N-[(1S)-1-benzhydryl-2-[[2-[2-[(2R,5R,6S)-5-methyl-6-[(1-methylpyrazolo[3,4-d]pyrimidin-4-yl)sulfanylmethyl]morpholin-2-yl]ethyl]phenyl]amino]-2-oxo-ethyl]carbamate] — 3.7-fold lower, 11.7 nM
- N[C@H](C(=O)Nc1cccc(F)c1OC[C@@H]1CN[C@@H]2c3ccccc3C[C@@H]2O1)C(c1ccccc1)c1ccccc1 [Example 60, N-{3-fluoro-2-[(2S,4aR,9aS)-2,3,4,4a,9,9a-hexahydroindeno [2,1-b][1,4]oxazin-2-ylmethoxy]phenyl}-β-phenyl-L-phenylalaninamide] — 14-fold higher, 610 nM
- COC(=O)N[C@H](C(=O)Nc1ccccc1CC[C@@H]1CN[C@H](C)[C@@H](CSc2nc3ncccc3[nH]2)O1)C(c1ccccc1)c1ccccc1 [Example 22, methyl N-[(1S)-1-benzhydryl-2-[[2-[2-[(2R,5R,6S)-6-(1H-imidazo[4,5-b]pyridin-2-ylsulfanylmethyl)-5-methyl-morpholin-2-yl]ethyl]phenyl]amino]-2-oxo-ethyl]carbamate] — within 1.5-fold, 44.4 nM
- COC(=O)N[C@H](C(=O)Nc1ccccc1CC[C@@H]1CN[C@H](C)[C@@H](COc2ccc(C#N)cc2)O1)C(c1ccccc1)c1ccccc1 [Example 2] — 5.1-fold higher, 222 nM
- C[C@@H]1O[C@H](CCc2c(F)cccc2NC(=O)[C@@H](N)C(c2ccc(F)cc2)c2ccc(F)cc2)CN[C@@H]1COC(=O)NCC(F)(F)F [Example 50, 4-fluoro-N-(3-fluoro-2-{2-[(2R,5R,6S)-6-methyl-5-({[(2,2,2-trifluoroethyl)carbamoyl]oxy}methyl)morpholin-2-yl]ethyl}phenyl)-β-(4-fluorophenyl)-L-phenylalaninamide] — within 1.5-fold, 30 nM
- C[C@@H]1O[C@H](CCc2c(F)cccc2NC(=O)[C@@H](N)C(c2ccc(F)cc2)c2ccc(F)cc2)CN[C@@H]1CO [Example 49, 4-fluoro-N-(3-fluoro-2-{2-[(2R,5R,6S)-5-(hydroxymethyl)-6-methylmorpholin-2-yl]ethyl}phenyl)-β-(4-fluorophenyl)-L-phenylalaninamide] — 9.2-fold higher, 400 nM
- N[C@H](C(=O)Nc1cccc(F)c1CC[C@@H]1CN[C@H](CO)[C@@H](COC(=O)NCC(F)(F)F)O1)C(c1ccc(F)cc1)c1ccc(F)cc1 [Example 63, 4-fluoro-N-(3-fluoro-2-{2-[(2R,5R,6S)-5-(hydroxymethyl)-6-({[(2,2,2-trifluoroethyl)carbamoyl]oxy}methyl)morpholin-2-yl]ethyl}phenyl)-β-(4-fluorophenyl)-L-phenylalaninamide] — 3-fold higher, 130 nM
- C[C@@H]1O[C@H](CCc2c(F)cncc2NC(=O)[C@@H](N)C(c2ccc(F)cc2)c2ccc(F)cc2)CN[C@@H]1COC(N)=O [Example 53, N-[4-(2-{(2R,5R,6S)-5-[(carbamoyloxy)methyl]-6-methylmorpholin-2-yl}ethyl)-5-fluoropyridin-3-yl]-4-fluoro-β-(4-fluorophenyl)-L-phenylalaninamide] — 1.7-fold lower, 25 nM
- COC(=O)N[C@H](C(=O)Nc1ccccc1CC[C@@H]1CN[C@H](C)[C@@H](CS(=O)(=O)c2ccc(Cl)cc2)O1)C(c1ccccc1)c1ccccc1 [Example 40, N-(2-{2-[(2R,5R,6S)-6-{[(4-chlorophenyl)sulfonyl]methyl}-5-methylmorpholin-2-yl]ethyl}phenyl)-Nα-(methoxycarbonyl)-β-phenyl-L-phenylalaninamide] — 17-fold higher, 750 nM
- C[C@H]1O[C@H](CCc2c(F)cccc2NC(=O)[C@@H](N)C(c2ccc(F)cc2)c2ccc(F)cc2)CN[C@@H]1COC(=O)NCc1ccc(F)cc1 [Example 56, 4-fluoro-N-(3-fluoro-2-{2-[(2R,5R,6R)-5-({[(4-fluorobenzyl)carbamoyl]oxy}methyl)-6-methylmorpholin-2-yl]ethyl}phenyl)-β-(4-fluorophenyl)-L-phenylalaninamide] — 6.2-fold lower, 7 nM
- COC(=O)N[C@H](C(=O)Nc1ccccc1CC[C@@H]1CN[C@H](C)[C@@H](CSc2nc(C)cc(C)c2C#N)O1)C(c1ccccc1)c1ccccc1 [Example 27, methyl N-[(1S)-1-benzhydryl-2-[[2-[2-[(2R,5R,6S)-6-[(3-cyano-4,6-dimethyl-2-pyridyl)sulfanylmethyl]-5-methyl-morpholin-2-yl]ethyl]phenyl]amino]-2-oxo-ethyl]carbamate] — 2.9-fold higher, 124 nM
- COC(=O)N[C@H](C(=O)Nc1ccccc1CC[C@@H]1CN[C@H](C)[C@@H](CSc2nnc(CN3CCCC3)o2)O1)C(c1ccccc1)c1ccccc1 [Example 26, methyl N-[(1S)-1-benzhydryl-2-[[2-[2-[(2R,5R,6S)-5-methyl-6-[[5-(pyrrolidin-1-ylmethyl)-1,3,4-oxadiazol-2-yl]sulfanylmethyl]morpholin-2-yl]ethyl]phenyl]amino]-2-oxo-ethyl]carbamate] — 2.9-fold higher, 124 nM
- C[C@@H]1O[C@H](CCc2c(F)cccc2NC(=O)[C@@H](N)C(c2ccc(F)cc2)c2ccc(F)cc2)CN[C@@H]1COC(=O)N[C@@H](c1ccc(F)cc1)C1CC1 [Example 59, N-[2-(2-{(2R,5R,6S)-5-[({[(R)-cyclopropyl(4-fluorophenyl)methyl]carbamoyl}oxy)methyl]-6-methylmorpholin-2-yl}ethyl)-3-fluorophenyl]-4-fluoro-β-(4-fluorophenyl)-L-phenylalaninamide] — 2.5-fold lower, 17 nM
- C[C@H]1O[C@H](CCc2c(F)cncc2NC(=O)[C@@H](N)C(c2ccc(F)cc2)c2ccc(F)cc2)CN[C@@H]1COC(=O)NCC(F)(F)F [Example 45, 4-fluoro-N-(5-fluoro-4-{2-[(2R,5R,6R)-6-methyl-5-({[(2,2,2-trifluoroethyl)carbamoyl]oxy}methyl)morpholin-2-yl]ethyl}pyridin-3-yl)-β-(4-fluorophenyl)-L-phenylalaninamide] — 1.8-fold lower, 24 nM
- COC(=O)N[C@H](C(=O)Nc1ccccc1CC[C@@H]1CN[C@H](C)[C@@H](CSc2nnnn2CCN(C)C)O1)C(c1ccccc1)c1ccccc1 [Example 28, methyl N-[(1S)-1-benzhydryl-2-[[2-[2-[(2R,5R,6S)-6-[[1-(2-dimethylaminoethyl)tetrazol-5-yl]sulfanylmethyl]-5-methyl-morpholin-2-yl]ethyl]phenyl]amino]-2-oxo-ethyl]carbamate] — 4.9-fold higher, 214 nM
- COC(=O)N[C@H](C(=O)Nc1ccccc1CC[C@@H]1CN[C@H](C)[C@@H](CSc2ncccc2Cl)O1)C(c1ccccc1)c1ccccc1 [Example 3, N-(2-{2-[(2R,5R,6S)-6-{[(3-chloropyridin-2-yl)sulfanyl]methyl}-5-methylmorpholin-2-yl]ethyl}phenyl)-Nα-(methoxycarbonyl)-β-phenyl-L-phenylalaninamide] — 5.8-fold lower, 7.52 nM
- COC(=O)N[C@H](C(=O)Nc1ccccc1CC[C@@H]1CN[C@H](CO)[C@@H](CSc2nnc(-c3ccncc3)o2)O1)C(c1ccccc1)c1ccccc1 [Example 31, N-(2-{2-[(2R,5R,6S)-5-(hydroxymethyl)-6-({[5-(pyridin-4-yl)-1,3,4-oxadiazol-2-yl]sulfanyl}methyl)morpholin-2-yl]ethyl}phenyl)-Nα-(methoxycarbonyl)-β-phenyl-L-phenylalaninamide] — 250-fold lower, 0.171 nM
- COC(=O)N[C@H](C(=O)Nc1ccccc1CC[C@@H]1CN[C@H](C)[C@@H](CSc2ccc(C)c(C)c2)O1)C(c1ccccc1)c1ccccc1 [Example 12, methyl N-[(1S)-1-benzhydryl-2-[[2-[2-[(2R,5R,6S)-6-[(3,4-dimethylphenyl)sulfanylmethyl]-5-methyl-morpholin-2-yl]ethyl]phenyl]amino]-2-oxo-ethyl]carbamate] — 3.6-fold lower, 11.9 nM
- COC(=O)N[C@H](C(=O)Nc1ccccc1CC[C@@H]1CN[C@H](C)[C@@H](CSc2ccncc2)O1)C(c1ccccc1)c1ccccc1 [Example 19, methyl N-[(1S)-1-benzhydryl-2-[[2-[2-[(2R,5R,6S)-5-methyl-6-(4-pyridylsulfanylmethyl)morpholin-2-yl]ethyl]phenyl]amino]-2-oxo-ethyl]carbamate] — within 1.5-fold, 41.4 nM
- C[C@@H]1O[C@H](CCc2c(F)cccc2NC(=O)[C@@H](N)C(c2ccc(F)cc2)c2ccc(F)cc2)CN[C@@H]1COC(=O)N[C@@H](C)C(F)(F)F [Example 37, 4-fluoro-N-[3-fluoro-2-(2-{(2R,5R,6S)-6-methyl-5-[({[(1S)-2,2,2-trifluoro-1-methylethyl]carbamoyl}oxy)methyl]morpholin-2-yl}ethyl)phenyl]-β-(4-fluorophenyl)-L-phenylalaninamide] — 14-fold lower, 3.1 nM
